Laboratory results as given in patent US7491794B2, “Macrocyclic compounds as inhibitors of viral replication” (Intermune, Inc., priority 2003, dated 2009).
Like-named read-outs stand apart in the source and are kept apart here.

What was measured:
[1] = system: HCV sub-genomic replicon, GS4.3; experiment: Quantitation by ELISA of NPTII in the HCV sub-genomic replicon, GS4.3, Section B; assay type: cell-based; details: Hepatitis C virus, read-out: Replicon EC50
Text: Quantitation by ELISA of the Selectable Marker Protein, Neomycin Phosphotransferase II (NPTII) in the HCV Sub-Genomic Replicon, GS4.3
The HCV sub-genomic replicon (1377/NS3-3′, accession No. AJ242652), stably maintained in HuH-7 hepatoma cells, was created by Lohmann et al. Science 285: 110-113 (1999). The replicon-containing cell culture, designated GS4.3, was obtained from Dr. Christoph Seeger of the Institute for Cancer Research, Fox Chase Cancer Center, Philadelphia, Pa.
GS4.3 cells were maintained at 37° C., 5% CO2, in DMEM (Gibco 11965-092) supplemented with L-glutamine 200 mM (100×) (Gibco25030-081), non-essential amino acids (NEAA)(Biowhittaker 13-114E), heat-inactivated (HI) Fetal Bovine Serum(FBS)(Hyclone SH3007.03) and 750 μg/ml geneticin (G418)(Gibco 10131-035). Cells were sub-divided 1:3 or 4 every 2-3 days.
24 hours prior to the assay, GS4.3 cells were collected, counted, and plated in 96-well plates (Costar 3585) at 7500 cells/well in 100 μl standard maintenance medium (above) and incubated in the conditions above. To initiate the assay, culture medium was removed, cells were washed once with PBS (Gibco 10010-023) and 90 μl Assay Medium (DMEM, L-glutamine, NEAA, 10% HI FBS, no G418) was added. Inhibitors were made as a 10× stock in Assay Medium, (3-fold dilutions from 10 μM to […] final concentration, final DMSO concentration 1%), 10 μl were added to duplicate wells, plates were rocked to mix, and incubated as above for 72 h.
An NPTII ELISA kit was obtained from AGDIA, Inc. (Compound direct ELISA test system for Neomycin Phosphotransferase II, PSP 73000/4800). Manufacturer's instructions were followed, with some modifications. 10×PEB-1 lysis buffer was made up to include 500 μM PMSF (Sigma P7626, 50 mM stock in isopropanol). After 72 h incubation, cells were washed once with PBS and 150 μl PEB-1 with PMSF was added per well. Plates were agitated vigorously for 15 minutes, room temperature, then frozen at −70° C. Plates were thawed, lysates were mixed thoroughly, and 100 μl were applied to an NPTII Elisa plate. A standard curve was made. Lysate from DMSO-treated control cells was pooled, serially diluted with PEB-1 with PMSF, and applied to duplicate wells of the ELISA plate, in a range of initial lysate amount of 150u1-2.5 ul. In addition, 100 μl buffer alone was applied in duplicate as a blank. Plates were sealed and gently agitated at room temperature for 2 h. Following capture incubation, the plates were washed 5×300 μl with PBS-T (0.5% Tween-20, PBS-T was supplied in the ELISA kit). For detection, a 1× dilution of enzyme conjugate diluent MRS-2 (5×) was made in PBS-T, into which 1:100 dilutions of enzyme conjugates A and B were added, as per instructions. Plates were resealed, and incubated with agitation, covered, room temperature, for 2 h. The washing was then repeated and 100 μl of room temperature TMB substrate was added. After approximately 30 minutes incubation (room temperature, agitation, covered), the reaction was stopped with 50 μl 3M sulfuric acid. Plates were read at 450 nm on a Molecular Devices Versamax plate reader.
Inhibitor effect was expressed as a percentage of DMSO-treated control signal, and inhibition curves were calculated using a 4-parameter equation: y=A+((B−A)/(1+((C/x)^D))), where C is half-maximal activity or EC50.

NS3-NS4A protease = molecular target: T1, NS3-NS4A protease (Hepatitis C virus genotype 1a, UniProt P27958); experiment: NS3-NS4A protease assay (NS3 inhibition assay, RETS1 substrate), Section B; assay type: biochemical; details: read-out: NS3-NS4A IC50
T1 construct: Recombinant E. coli or Baculovirus full-length NS3 was diluted to 3.33 μM with assay buffer; made in house; host or cells: E. coli or baculovirus (BV) system
T1 sequence (P27958 1027-1657): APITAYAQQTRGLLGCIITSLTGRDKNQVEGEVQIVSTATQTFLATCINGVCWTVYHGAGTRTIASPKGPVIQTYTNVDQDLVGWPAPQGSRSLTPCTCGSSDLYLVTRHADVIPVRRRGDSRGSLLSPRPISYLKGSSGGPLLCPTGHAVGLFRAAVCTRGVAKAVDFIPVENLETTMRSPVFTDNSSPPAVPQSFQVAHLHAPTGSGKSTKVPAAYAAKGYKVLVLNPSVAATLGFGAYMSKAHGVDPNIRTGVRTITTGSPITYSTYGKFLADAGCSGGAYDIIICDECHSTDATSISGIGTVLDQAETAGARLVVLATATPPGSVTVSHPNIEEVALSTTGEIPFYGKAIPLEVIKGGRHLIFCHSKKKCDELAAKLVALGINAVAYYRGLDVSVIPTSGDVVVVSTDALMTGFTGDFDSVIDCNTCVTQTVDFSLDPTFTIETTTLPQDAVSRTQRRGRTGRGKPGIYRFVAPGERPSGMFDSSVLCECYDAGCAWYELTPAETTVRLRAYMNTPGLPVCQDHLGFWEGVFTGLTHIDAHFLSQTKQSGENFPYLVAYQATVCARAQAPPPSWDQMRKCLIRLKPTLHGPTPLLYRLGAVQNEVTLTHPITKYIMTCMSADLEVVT
In short: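 Full-length NS3 (E. coli or baculovirus) precomplexed with excess NS4A-2 peptide, run at 2 nM (E. coli) or 3 nM (BV) NS3; compounds pre-incubated 10 min at room temperature before RETS1 substrate. Fluorescence (ex 335/em 495 nm) read kinetically 30 min; IC50 from four-parameter fit, converted to Ki via Ki=IC50/(1+[S]/Km).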

| Structure (SMILES) | EC50 ([1]; GS4.3 cells, 72 h incubation) [nM] | IC50 (NS3-NS4A protease) [nM] | EC50 ([1]; 72 h) [nM] |
| --- | --- | --- | --- |
| O=C(N[C@H]1CCCCCCCC2C[C@@]2(C(=O)NS(=O)(=O)C2CC2)NC(=O)[C@@H]2C[C@@H](OC(=O)N3CCc4ccccc4C3)CN2C1=O)OC1CCCC1 (stereo in doubt) [AR00324375, (1S,4R,6S,14S,18R)-3,4-Dihydro-1H-isoquinoline-2-carboxylic acid 14-cyclopentyloxycarbonylamino-4-cyclopropanesulfonylaminocarbonyl-2,15-dioxo-3,16-diaza-tricyclo[14.3.0.0^4,6]nonadec-18-yl ester] | < 1000 | < 1000 |  |
| CC(C)(C)OC(=O)N[C@H]1CCCCCCCC2C[C@@]2(C(=O)NS(=O)(=O)C2CC2)NC(=O)[C@@H]2C[C@@H](OC(=O)N3Cc4ccccc4C3)CN2C1=O (stereo in doubt) [AR00333833, (1S,4R,6S,14S,18R)-1,3-Dihydro-isoindole-2-carboxylic acid 14-tert-butoxycarbonylamino-4-cyclopropanesulfonylaminocarbonyl-2,15-dioxo-3,16-diaza-tricyclo[14.3.0.0^4,6]nonadec-18-yl ester] | < 100 | < 100 |  |
| CC(C)(C)OC(=O)N[C@H]1CCCCC/C=C\[C@@H]2C[C@@]2(C(=O)O)NC(=O)[C@@H]2C[C@@H](OC(=O)N3CCc4ccccc4C3)CN2C1=O [AR00220042, (1S,4R,6S,14S,18R)-14-tert-Butoxycarbonylamino-18-(3,4-dihydro-1H-isoquinoline-2-carbonyloxy)-2,15-dioxo-3,16-diaza-tricyclo[14.3.0.0^4,6]nonadec-7-ene-4-carboxylic acid] | < 10000 | < 1000 |  |
| CC(C)(C)OC(=O)N[C@H]1CCCCC/C=C\[C@@H]2C[C@@]2(C(=O)NS(C)(=O)=O)NC(=O)[C@@H]2C[C@@H](OC(=O)N3CCc4ccccc4C3)CN2C1=O [AR00254906, (1S,4R,6S,14S,18R)-3,4-Dihydro-1H-isoquinoline-2-carboxylic acid 14-tert-butoxycarbonylamino-4-methanesulfonylaminocarbonyl-2,15-dioxo-3,16-diaza-tricyclo[14.3.0.0^4,6]nonadec-7-en-18-yl ester] | < 1000 | < 100 |  |
| CC(C)S(=O)(=O)NC(=O)[C@@]12C[C@H]1/C=C\CCCCC[C@H](NC(=O)OC(C)(C)C)C(=O)N1C[C@H](OC(=O)N3CCc4ccccc4C3)C[C@H]1C(=O)N2 [AR00261407, (1S,4R,6S,14S,18R)-3,4-Dihydro-1H-isoquinoline-2-carboxylic acid 14-tert-butoxycarbonylamino-2,15-dioxo-4-(propane-2-sulfonylaminocarbonyl)-3,16-diaza-tricyclo[14.3.0.0^4,6]nonadec-7-en-18-yl ester] |  | < 100 | < 1000 |
| CC(C)(C)OC(=O)N[C@H]1CCCCC/C=C\[C@@H]2C[C@@]2(C(=O)NS(=O)(=O)C2CC2)NC(=O)[C@@H]2C[C@@H](OC(=O)N3CCc4ccccc4C3)CN2C1=O [AR00261408, (1S,4R,6S,14S,18R)-3,4-Dihydro-1H-isoquinoline-2-carboxylic acid 14-tert-butoxycarbonylamino-4-cyclopropanesulfonylaminocarbonyl-2,15-dioxo-3,16-diaza-tricyclo[14.3.0.0^4,6]nonadec-7-en-18-yl ester] | < 100 | < 100 |  |
| CCCCS(=O)(=O)NC(=O)[C@@]12C[C@H]1/C=C\CCCCC[C@H](NC(=O)OC(C)(C)C)C(=O)N1C[C@H](OC(=O)N3CCc4ccccc4C3)C[C@H]1C(=O)N2 [AR00261409, (1S,4R,6S,14S,18R)-3,4-Dihydro-1H-isoquinoline-2-carboxylic acid 4-(butane-1-sulfonylaminocarbonyl)-14-tert-butoxycarbonylamino-2,15-dioxo-3,16-diaza-tricyclo[14.3.0.0^4,6]nonadec-7-en-18-yl ester] |  | < 100 | < 10000 |
| O=C(N[C@H]1CCCCC/C=C\[C@@H]2C[C@@]2(C(=O)NS(=O)(=O)C2CC2)NC(=O)[C@@H]2C[C@@H](OC(=O)N3CCc4ccccc4C3)CN2C1=O)OC1CCCC1 [AR00282131, (1S,4R,6S,14S,18R)-3,4-Dihydro-1H-isoquinoline-2-carboxylic acid 14-cyclopentyloxycarbonylamino-4-cyclopropanesulfonylaminocarbonyl-2,15-dioxo-3,16-diaza-tricyclo[14.3.0.0^4,6]nonadec-7-en-18-yl ester] | < 100 | < 100 |  |
| CC(C)(C)OC(=O)N[C@H]1CCCCC/C=C\[C@@H]2C[C@@]2(C(=O)NS(=O)(=O)C2CC2)NC(=O)[C@@H]2C[C@@H](NC(=O)N3CCc4ccccc4C3)CN2C1=O [AR00287266, (is, 4R, 6S, 14S, 18R)-{4-Cyclopropanesulfonylaminocarbonyl-18-[(3,4-dihydro-1H-isoquinoline-2-carbonyl)-amino]-2,15-dioxo-3,16-diaza-tricyclo[14.3.0.0^4,6]nonadec-7-en-14-yl}-carbamic acid tert-butyl ester] | < 1000 | < 100 |  |
| CC(C)(C)OC(=O)N[C@H]1CCCCC/C=C\[C@@H]2C[C@@]2(C(=O)O)NC(=O)[C@@H]2C[C@@H](OC(=O)N3Cc4ccccc4C3)CN2C1=O [AR00291871, (1S,4R,6S,14S,18R)-14-tert-Butoxycarbonylamino-18-(1,3-dihydro-isoindole-2-carbonyloxy)-2,15-dioxo-3,16-diaza-tricyclo[14.3.0.0^4,6]nonadec-7-ene-4-carboxylic acid] | < 1000 | < 100 |  |
| CC(C)(C)OC(=O)N[C@H]1CCCCC/C=C\[C@@H]2C[C@@]2(C(=O)O)NC(=O)[C@@H]2C[C@@H](OC(=O)N3CCc4ccccc43)CN2C1=O [AR00291875, (1S,4R,6S,14S,18R)-14-tert-Butoxycarbonylamino-18-(2,3-dihydro-indole-1-carbonyloxy)-2,15-dioxo-3,16-diaza-tricyclo[14.3.0.0^4,6]nonadec-7-ene-4-carboxylic acid] | < 10000 | < 1000 |  |
| CC(C)(C)NC(=O)N[C@H]1CCCCC/C=C\[C@@H]2C[C@@]2(C(=O)O)NC(=O)[C@@H]2C[C@@H](OC(=O)N3CCc4ccccc4C3)CN2C1=O [AR00294377, (1S,4R,6S,14S,18R)-14-(3-tert-Butyl-ureido)-18-(3,4-dihydro-1H-isoquinoline-2-carbonyloxy)-2,15-dioxo-3,16-diaza-tricyclo[14.3.0.0^4,6]nonadec-7-ene-4-carboxylic acid] | < 10000 | < 1000 |  |
| O=C(NC1CCCC1)N[C@H]1CCCCC/C=C\[C@@H]2C[C@@]2(C(=O)O)NC(=O)[C@@H]2C[C@@H](OC(=O)N3CCc4ccccc4C3)CN2C1=O [AR00294378, (1S,4R,6S,14S,18R)-14-(3-Cyclopentyl-ureido)-18-(3,4-dihydro-1H-isoquinoline-2-carbonyloxy)-2,15-dioxo-3,16-diaza-tricyclo[14.3.0.0^4,6]nonadec-7-ene-4-carboxylic acid] | < 10000 | < 1000 |  |
| CC(C)(C)OC(=O)N[C@H]1CCCCC/C=C\[C@@H]2C[C@@]2(C(=O)NS(=O)(=O)C2CC2)NC(=O)[C@@H]2C[C@@H](OC(=O)N3Cc4ccccc4C3)CN2C1=O [AR00294381, (1S,4R,6S,14S,18R)-1,3-Dihydro-isoindole-2-carboxylic acid 14-tert-butoxycarbonylamino-4-cyclopropanesulfonylaminocarbonyl-2,15-dioxo-3,16-diaza-tricyclo[14.3.0.0^4,6]nonadec-7-en-18-yl ester] | < 100 | < 100 |  |
